# From paper PMC5706701, “Development of a homogenous high-throughput assay for inositol hexakisphosphate kinase 1 activity” (PLoS ONE, 2017)
# “Also recorded” adds a separate entry of the source. Like-named read-outs stand apart in the source and are kept apart here.
# Assays:
# Human IP6K1 [1] = target: T1, Human IP6K1 (Homo sapiens, UniProt Q92551); experiment: IP6K1 kinetic assay (ADP-Glo Max, Michaelis-Menten); format: biochemical; details: 400μM IP6, ATP 31.25μM to 2mM, 15ng IP6K1, 15 minutes
# T1 construct: GST (N, cleaved yes); made in house; host or cells: C43 E. coli, pGEX-6P-2
# Description: IP6K1 activity was measured using the ADP-Glo Max kit (Promega). […] Reactions were quenched with 5μL of Promega ADP-Glo reagent to deplete the remaining ATP at the corresponding time points and incubated for 1hr at room temperature in the dark. […] Luminescence was detected with a Tecan Infinite […] plate reader. The amount of ADP produced by IP6K1 was determined by correlating the observed luminescence to a luminescence signal standard curve generated from various concentrations of ADP. A new standard curve was generated for each concentration of ATP tested such that the total amount of nucleotides (ATP+ADP) at every point on the curve was equal to the concentration of ATP used in the experiment. Standard curves typically began with 100μM or 50μM ADP and were serially 2-fold diluted 8 times. […] Nonlinear regressions and curve fitting to the Michaelis-Menten equation were performed in GraphPad Prism 7. […] The ADP production at […] was measured. The initial reaction velocity (V0) was calculated and plotted with each ATP condition. GraphPad Prism 7 was used to run the non-linear regression and fit the data to the Michaelis-Menten equation. […] The Michaelis-Menten constants when IP6 is the varied substrate were unable to be determined.
# IP6K1 = system: IP6K1; set-up: method as in PMID 8633060; details: 3H-PP-IP5 production with 3H-IP6 as substrate; read-out: Km of ATP for IP6K1; cited from earlier work
# [2] = cited from earlier work
# [3] = cited from earlier work; remark: listed apart in the source
# Human IP6K1 [4] = target: T1, Human IP6K1; experiment: Inositol polyphosphate separation by PAGE (5PP-IP5 production by IP6K1); format: biochemical; details: 10μM inhibitor, 1mM ATP, 250μM IP6, 60nM IP6K1, 2 hours, 37°C
# DIO mice = system: DIO mice; set-up: method as in PMID 27689003; details: DIO model, mice treated with TNP; cited from earlier work
# Human IP6K1 [5] = target: T1, Human IP6K1; experiment: IP6K1 inhibition dose-response assay (ADP-Glo Max); format: biochemical
# [6] = system: enzymes involved in the detection steps of the kit; experiment: Counter-screen against the detection steps of the ADP-Glo Max kit (no enzyme, no IP6); format: biochemical; details: 10μM compound, 25μM ADP and 975μM ATP
# Description: The Sigma LOPAC was obtained as 10mM DMSO stock solutions from the Johns Hopkins ChemCore facility. Each compound was first diluted to 50μM and 25% DMSO in assay buffer. The inhibition assay was performed as described above with 1μL of compound and 4μL of kinase master mix so that the final compound concentration was 10μM in 5% DMSO. […] Hits were determined based by the Z score, which is calculated as Z = (Xi-Xavg)/Sx, where Xi is the raw measurement on the i^th compound, Xavg and Sx are the mean and the standard deviation, respectively, of all measurements within the plate. Hits identified from the screen were repeated in the assay in quadruplicate for confirmation. These confirmed hits were then tested to determine if they inhibited the enzymes involved in the detection steps of the kit. Possible interference of the compounds was assessed by measuring the degree to which they inhibited the signal produced by a 25μM ADP in the presence of 975μM ATP. This experiment was run as described above for the inhibition assays in the absence of enzyme and IP6.
# human IP6K3 = target: T2, human IP6K3 (Homo sapiens, UniProt Q96PC2); experiment: IP6K3 inhibition dose-response assay (ADP-Glo Max); format: biochemical
# T2 construct: GST (N, cleaved yes); made in house; host or cells: C43 E. coli, pGEX-6P-2
# T2 sequence (Q96PC2 1-410): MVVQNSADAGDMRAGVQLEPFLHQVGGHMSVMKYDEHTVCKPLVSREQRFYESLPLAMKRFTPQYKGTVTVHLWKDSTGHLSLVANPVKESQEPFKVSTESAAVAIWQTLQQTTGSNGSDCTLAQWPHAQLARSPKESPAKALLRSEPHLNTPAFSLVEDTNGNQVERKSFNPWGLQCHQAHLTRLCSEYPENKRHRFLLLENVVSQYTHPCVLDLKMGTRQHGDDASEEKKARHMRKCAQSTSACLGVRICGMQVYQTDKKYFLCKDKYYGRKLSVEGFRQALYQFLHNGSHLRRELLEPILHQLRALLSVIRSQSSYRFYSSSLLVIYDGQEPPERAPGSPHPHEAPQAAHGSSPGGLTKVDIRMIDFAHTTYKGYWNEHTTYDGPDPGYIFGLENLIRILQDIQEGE
# Description: (§1) Human IP6K1 (NCBI accession# Q92551), human IP6K2 (NCBI accession# Q9UHH9), and human IP6K3 (NCBI accession# Q96PC2) were purified from C43 E. coli transformed with pGEX-6P-2 expression vector containing GST tagged IP6K1, IP6K2, or IP6K3. The bacteria were grown overnight in a starter culture containing LB (Lennox) and 100μg/mL ampicillin (Sigma). The starter culture was diluted 1:100 into LB (Lennox) and allowed to grow to an optical density of 0.8 at 37°C when protein expression was induced with 1mM IPTG (Calbiochem) for 5hrs. The cells were pelleted with 3000RCF at 4°C and frozen at -80°C. Later, the bacteria was re-suspended in lysis buffer (20mM Tris, 200mM NaCl, 5mM DTT, 1% Triton-X, 0.5% IPEGAL, 1mg/mL lysozyme, and 1 protease inhibitor tablet (Sigma) per 100mL buffer, pH 7.4) and rotated on an end over end shaker for 30 min at 4°C followed by sonication. […]
# (§2) For the dose response assays, 7–10 serial 3-fold compound dilutions were prepared in DMSO and then each compound was diluted with assay buffer (50mM Tris, 10mM MgCl2, 2.5mM DTT, 0.02% Triton X-100, pH 6.9) to reach the desired inhibitor concentrations in 25% DMSO. […] Luminescence generated was read on a Tecan Infinite M100 Pro plate reader. Samples were run in quadruplicate and the data was analyzed using a […] variable slope inhibition parameter on GraphPad Prism 7. […]
# human IP6K2 = target: T3, human IP6K2 (Homo sapiens, UniProt Q9UHH9); experiment: IP6K2 inhibition dose-response assay (ADP-Glo Max); format: biochemical
# T3 construct: GST (N, cleaved yes); made in house; host or cells: C43 E. coli, pGEX-6P-2
# T3 sequence (Q9UHH9 1-426): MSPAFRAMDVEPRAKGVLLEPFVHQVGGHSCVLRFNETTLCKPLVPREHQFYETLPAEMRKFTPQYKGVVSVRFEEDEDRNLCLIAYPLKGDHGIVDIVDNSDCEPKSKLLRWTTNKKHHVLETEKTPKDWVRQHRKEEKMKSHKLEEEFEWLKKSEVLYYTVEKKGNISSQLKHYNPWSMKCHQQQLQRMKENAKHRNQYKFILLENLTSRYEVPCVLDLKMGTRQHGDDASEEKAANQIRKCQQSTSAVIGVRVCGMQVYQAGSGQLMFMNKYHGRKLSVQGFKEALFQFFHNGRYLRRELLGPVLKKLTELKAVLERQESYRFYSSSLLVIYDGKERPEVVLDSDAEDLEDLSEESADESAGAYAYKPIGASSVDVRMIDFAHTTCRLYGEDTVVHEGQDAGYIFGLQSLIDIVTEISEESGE
# Description: as §1, §2
# Human IP6K1 [7] = target: T1, Human IP6K1; experiment: IP6K1 high-throughput screen of the Sigma LOPAC (ADP-Glo Max, single point); format: biochemical; details: LOPAC single-point screen
# T1 sequence (Q92551 whole entry): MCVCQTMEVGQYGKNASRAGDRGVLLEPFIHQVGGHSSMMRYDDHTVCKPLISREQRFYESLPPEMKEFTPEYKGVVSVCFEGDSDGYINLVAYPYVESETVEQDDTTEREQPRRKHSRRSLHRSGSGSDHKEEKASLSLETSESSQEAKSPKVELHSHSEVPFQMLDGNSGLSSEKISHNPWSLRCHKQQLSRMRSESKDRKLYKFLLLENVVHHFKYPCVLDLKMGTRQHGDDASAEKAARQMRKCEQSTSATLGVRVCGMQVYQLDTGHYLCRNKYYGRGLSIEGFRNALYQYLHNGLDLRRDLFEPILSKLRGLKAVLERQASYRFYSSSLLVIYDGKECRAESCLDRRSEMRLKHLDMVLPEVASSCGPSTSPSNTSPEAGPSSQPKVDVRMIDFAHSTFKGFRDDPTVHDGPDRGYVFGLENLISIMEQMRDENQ
smiles,measurement,setting,value
Nc1ncnc2c1ncn2[C@@H]1O[C@H](COP(=O)(O)OP(=O)(O)OP(=O)(O)O)[C@@H](O)[C@H]1O [ATP],Km,Human IP6K1 [1],382 ± 44 µM
same,Vmax for ATP,Human IP6K1 [1],1116 ± 41 nmol/min/mg
same,Km,IP6K1,1000 µM
"O=[N+]([O-])c1ccc(CNc2nc(NCc3cccc(C(F)(F)F)c3)nc3nc[nH]c23)cc1 [TNP, N2-(m-trifluorobenzyl), N6-(p-nitrobenzyl)purine]",Pharmacokinetic properties,[2],poor pharmacokinetic properties
same,Brain penetration,[2]; in vivo,low brain penetration
same,Solubility in aqueous media,[3],insolubility in aqueous media
same,"Inhibition of 5PP-IP5 production by IP6K1 (PAGE, Toluidine Blue)",Human IP6K1 [4],inhibit 5PP-IP5 production in this experiment at 10μM albeit to a lesser degree
same,Performance in insulin and glucose tolerance tests,DIO mice,better performance in insulin and glucose tolerance tests
same,IC50,"Human IP6K1 [5]; 50μM IP6, 300μM ATP, 60nM IP6K1, 15 minutes, read-out: IC50 IP6K1",24 ± 1.5 µM
same,IC50,"Human IP6K1 [5]; 62.5μM ATP, 400μM IP6, 60nM IP6K1, 30 minutes, 37°C, read-out: IC50 IP6K1",12 ± 1.1 µM
same,IC50,"Human IP6K1 [5]; 100μM IP6, 300μM ATP, 60nM IP6K1, 15 minutes, read-out: IC50 IP6K1",20 ± 4.5 µM
same,IC50,"Human IP6K1 [5]; 200μM IP6, 300μM ATP, 60nM IP6K1, 15 minutes, read-out: IC50 IP6K1",21 ± 1.8 µM
same,IC50,"Human IP6K1 [5]; 250μM ATP, 400μM IP6, 60nM IP6K1, 30 minutes, 37°C, read-out: IC50 IP6K1",16 ± 1.1 µM
same,IC50,"Human IP6K1 [5]; 400μM IP6, 300μM ATP, 60nM IP6K1, 15 minutes, read-out: IC50 IP6K1",9.5 ± 1.5 µM
same,IC50,"Human IP6K1 [5]; 2mM ATP, 400μM IP6, 60nM IP6K1, 30 minutes, 37°C, read-out: IC50 IP6K1",39 ± 1.1 µM
same,Mode of inhibition of IP6K1,Human IP6K1 [5]; from IC50 shift with ATP or IP6 concentration,ATP competitive inhibitor; also recorded: IP6 is not competitive with TNP
same,Signal loss in counter-screen of detection steps,[6],neither TNP nor 6-Hydroxy-DL-Dopa showed significant signal loss
NC(Cc1cc(O)c(O)cc1O)C(=O)O (racemic) [6-Hydroxy-DL-Dopa],IC50,human IP6K3,11.1 ± 1.13 µM
same,"Inhibition of 5PP-IP5 production by IP6K1 (PAGE, Toluidine Blue)",Human IP6K1 [4],inhibited below the limit of detection
same,IC50,human IP6K2,1.66 ± 1.06 µM
same,IC50,Human IP6K1 [5],1.84 ± 1.03 µM
same,Signal loss in counter-screen of detection steps,[6],neither TNP nor 6-Hydroxy-DL-Dopa showed significant signal loss
same,Raw Signal,Human IP6K1 [7]; ADP-Glo Max luminescence raw signal per well,10170
same,Z-score,Human IP6K1 [7]; Z-score relative to plate average and StDev,-9.138
